These results are taken from patent US10464883B2, “Compounds and methods for the treatment of neurodegenerative diseases” (Resilio Therapeutics, LLC, priority 2015, dated 2019).

A short description of the series: pH stability of prodrugs of DFMO in PBS buffer (LC/MS/MS). Type of series: physicochemical. As to the method: The stability of prodrugs of DFMO to different pH conditions over time was assayed. Prodrugs were reconstituted in dimethylsulfoxide (DMSO), diluted into phosphate buffered saline (PBS) of different pH values, incubated for different lengths of time at room temperature, and then analyzed by LC/MS/MS for changes in the levels of each prodrug. […] Following this initial phase, the (2)-prodrug was reasonably stable over the next 24 hours so that less than 20% of the intact prodrug was lost at pH 3 and 5, and about 60% of the intact material was lost at pH 8 over a day. […] Similar results were obtained with the other prodrugs tested.

In the case of `CC(OC(=O)NCCCC(N)(C(=O)O)C(F)F)OC(=O)C(C)C` (stereo not drawn) [(2)-prodrug, 2-amino-2-(difluoromethyl)-5-[1-(2-methylpropanoyloxy)ethoxycarbonylamino]pentanoic acid], the “intact prodrug lost over the next 24 hours” value is, setting by setting: (PBS pH 3, room temperature, 24 hours following initial phase) “less than 20%”; (PBS pH 5, room temperature, 24 hours following initial phase) “less than 20%”. Moreover, the “decrease in the amount of intact, non-degraded prodrug over the first hour of incubation” value is recorded as “about 60%” (PBS pH 3, room temperature); 30-35% (PBS pH 5, room temperature); 30-35% (PBS pH 8, room temperature). Besides, the “intact material lost over a day” value (PBS pH 8, room temperature, 24 hours following initial phase) is listed as “about 60%”.
